Data taken from patent US4593090A, “Novel nitrosourea compounds, method for preparing same, and pharmaceutical composition containing same” (Gogo Kimura, priority 1981, dated 1986).

Columns and labels:
[1] = test system: Leukemia L1210; experiment: Activity against Leukemia L1210, intraperitoneal, increase in life span of mice; format: in vivo, female mice (BDF1 family); conditions: for ED (maximum ILS) / ED30: Mus musculus, L1210, ip; for ED (maximum ILS): read-out: O.D. (optimum dosage); for ED30: read-out: ILS30; for Survivors after 60 days / Max. ILS % / Therapeutic ratio TR: ip; for Survivors after 60 days: 6-membered group; for Max. ILS %: 60-day observation, versus control; for Therapeutic ratio TR: O.D./ILS30
Protocol: Tests were conducted in accordance with the method for measuring antitumor activity of National Cancer Center Tokyo (A, Hoshi et al, Farumashia 9 464 (1973)). Test compounds were each intraperitoneally (referred to as ip) or orally (referred to as op) administered once a day for 5 successive days to a 6-membered group of femal mice (BDF1 family, each weighing 20 to 23 g) 24 hours after 1×10^5 cells of Leukemia L1210 have been implantated into the abdominal cavities of the mice, and the effect was evaluated by comparing the survival days of treated groups with those of an untreated group of mice (control group) in 60-day observation. An increase percentage of life span (ILS%) was calculated from said average survival days compared with those of the control group. Further, therapeutic ratio (O.D./ILD30, referred to as T.R.) of each tested compound was calculated from the daily dosage of the compound necessary to increase said average survival days by 30% as compared with the control group (this dosage is referred to as ILS 30) and the daily dosage giving a maximum increase of life span to mice implantated with L1210 cells, namely an optimum dosage (referred to as O.D.). The results of five successive days intraperitoneal administrations of test compounds were shown in Tables I to III, and those of five successive oral administrations in Table IV.

[2] = Acute toxicity (LD50, Behrens-Karber method); format: in vivo, ICR mice; conditions: ip, mortality during 30 days; for LD50 at 720 h: mouse, in vivo
Protocol: Test compounds, dissolved or suspended in 0.5% aqueous CMC, were each intraperitoneally administered to ICR mice in a dose of 0.1 ml per 10 g body weight. LD50 (mg/kg) value of each test compound was calculated from the mortality of mice during 30 days by the Behrens-Karber method.

[3] = ip once a day for 5 successive days, daily dosage giving maximum increase of life span
[4] = ip once a day for 5 successive days, daily dosage increasing average survival days by 30%

| Structure (SMILES) | ED (maximum ILS) [1, 3] [mg/kg] | ED30 [1, 4] [mg/kg] | Survivors after 60 days [1] | Max. ILS % [1] [%] | Therapeutic ratio TR [1] | LD50 at 720 h [2] [mg/kg] | O.D. (optimum dosage) [1, 3] [mg/kg] | ILS30 [1, 4] [mg/kg] | LD50 [2] [mg/kg] |
| --- | --- | --- | --- | --- | --- | --- | --- | --- | --- |
| CC(C)CO[C@H]1O[C@H](CO)[C@@H](O)[C@H](O)[C@H]1N(CC(C)C)C(=O)N(CCCl)N=O [Compound 61, 3-isobutyl-3-(isobutyl α-D-glucopyranose-2-yl)-1-(2-chloroethyl)-1-nitrosourea] | 190 | 5.86 | 3/6 | > 340 | 32.4 | 595 | – | – | – |
| C=C(C)CN(C(=O)N(CCCl)N=O)C1C(CO)OC(OC2CCCCC2)C(O)C1O [Compound 97, 3-(2-methyl-2-propenyl)-3-(cyclohexyl α-D-glucopyranose-4-yl)-1-(2-chloroethyl)-1-nitrosourea] | 120 | 3.72 | 3/6 | > 360 | 32.3 | 390 | – | – | – |
| COCC(C)N(C[C@H]1O[C@H](OC2CCCC2)[C@H](O)[C@@H](O)[C@@H]1O)C(=O)N(CCCl)N=O (stereo partly drawn) [Compound 172, 3-(1-methy-2-methoxyethyl)-3-(cyclopentyl α-D-glucopyranose-6-yl)-1-(2-chloroethyl)-1-nitrosourea] | 180 | 2.67 | 6/6 | > 700 | 67.3 | 600 | – | – | – |
| COCC(C)OC1OC(CO)C(O)C(O)C1N(CC1CC1)C(=O)N(CCCl)N=O [Compound 72, 3-cyclopropylmethyl-3-(1-methyl-2-methoxyethyl α-D-glucopyranose-2-yl)-1-(2-chloroethyl)-1-nitrosourea] | 180 | 4.53 | 5/6 | > 625 | 39.7 | 550 | – | – | – |
| O=NN(CCCl)C(=O)N(CCC1CCCC1)C1C(OC2CCCCC2)OC(CO)C(O)C1O [Compound 67, 3-(2-cyclopentylethyl)-3-(cyclohexyl α-D-glucopyranose-2-yl)-1-(2-chloroethyl)-1-nitrosourea] | 200 | 7.5 | 3/6 | > 355 | 28.6 | 650 | – | – | – |
| CCCCCCO[C@H]1O[C@H](CN(CC(C)C)C(=O)N(CCCl)N=O)[C@@H](O)[C@H](O)[C@H]1O [Compound 26, 3-isobutyl-3-(n-hexyl α-D-glucopyranose-6-yl)-1-(2-chloroethyl)-1-nitrosourea] | 140 | 4.63 | 3/6 | > 370 | 30.2 | 415 | – | – | – |
| C=C(C)CN(C[C@H]1O[C@H](OC(C)CC)[C@H](O)[C@@H](O)[C@@H]1O)C(=O)N(CCCl)N=O (stereo partly drawn) [Compound 18, 3-(2-methyl-2-propenyl)-3-(sec-butyl α-D-glucopyranose-6-yl)-1-(2-chloroethyl)-1-nitrosourea] | 170 | 3.92 | 6/6 | > 700 | 43.4 | 515 | – | – | – |
| CCC(C)O[C@H]1O[C@H](CN(CCC(C)(C)C)C(=O)N(CCCl)N=O)[C@@H](O)[C@H](O)[C@H]1O (stereo partly drawn) [Compound 190, 3-(3,3-dimethyl-n-butyl)-3-(sec-butyl α-D-glucopyranose-6-yl)-1-(2-chloroethyl)-1-nitrosourea] | 150 | 3.12 | 6/6 | > 700 | 48.1 | 470 | – | – | – |
| C=C(C)CO[C@H]1O[C@H](CN(C(=O)N(CCCl)N=O)C(C)(C)C)[C@@H](O)[C@H](O)[C@H]1O [Compound 177, 3-tert-butyl-3-(2-methyl-2-propenyl α-D-glucopyranose-6-yl)-1-(2-chloroethyl)-1-nitrosourea] | 180 | 2.75 | 6/6 | > 700 | 65.4 | 550 | – | – | – |
| O=NN(CCCl)C(=O)N(CCC1CCCC1)C[C@H]1O[C@H](OC2CCCCC2)[C@H](O)[C@@H](O)[C@@H]1O [Compound 45, 3-(2-cyclopentylethyl)-3-(cyclohexyl α-D-glucopyranose-6-yl)-1-(2-chloroethyl)-1-nitrosourea] | 180 | 4.22 | 5/6 | > 625 | 42.7 | 560 | – | – | – |
| CC(C)CN(C[C@H]1O[C@H](OC(C)(C)C)[C@H](O)[C@@H](O)[C@@H]1O)C(=O)N(CCCl)N=O [Compound 28, 3-isobutyl-3-(2-methyl-2-propyl α-D-glucopyranose-6-yl)-1-(2-chloroethyl)-1-nitrosourea] | – | – | 6/6 | > 700 | 43.2 | – | 130 | 3.00 | 375 |
| COCCCN(C(=O)N(CCCl)N=O)[C@@H]1CO[C@H](OC2CCCCC2)[C@@H](O)[C@@H]1O [Compound 160, 3-(3-methoxy-n-propyl)-3-(cyclohexyl α-D-arabinopyranose-4-yl)-1-(2-chloroethyl)-1-nitrosourea] | 180 | 3.1 | 6/6 | > 700 | 58.1 | 550 | – | – | – |
| CCCC(OC)O[C@H]1O[C@H](CN(CCC(C)(C)C)C(=O)N(CCCl)N=O)[C@@H](O)[C@H](O)[C@H]1O (stereo partly drawn) [Compound 191, 3-(3,3-dimethyl-n-butyl)-3-(1-methoxy-n-butyl α-D-glucopyranose-6-yl)-1-(2-chloroethyl)-1-nitrosourea] | 160 | 2.64 | 6/6 | > 700 | 60.6 | 560 | – | – | – |
| CCOCCCO[C@H]1O[C@H](CN(CC(C)C)C(=O)N(CCCl)N=O)[C@@H](O)[C@H](O)[C@H]1O [Compound 32, 3-isobutyl-3-(3-ethoxy-n-propyl α-D-glucopyranose-6-yl)-1-(2-chloroethyl)-1-nitrosourea] | 170 | 2.91 | 6/6 | > 700 | 58.4 | 495 | – | – | – |
| COCC(C)N(C[C@H]1O[C@H](OCCc2ccccc2)[C@@H](O)[C@H](O)[C@@H]1O)C(=O)N(CCCl)N=O (stereo partly drawn) [Compound 141, 3-(1-methyl-2-methoxyethyl)-3-(phenyl-β-ethyl α-D-altropyranose-6-yl)-1-(2-chloroethyl)-1-nitrosourea] | 160 | 4.4 | 3/6 | > 360 | 36.4 | 480 | – | – | – |
| CCCN(C(=O)N(CCCl)N=O)C1C(CO)OC(OCC(C)C)C(O)C1O [Compound 90, 3-n-propyl-3-(isobutyl α-D-glucopyranose-4-yl)-1-(2-chloroethyl)-1-nitrosourea] | 100 | 3.07 | 3/6 | > 350 | 32.6 | 325 | – | – | – |
| CC(C)CO[C@H]1O[C@H](CN(C(=O)N(CCCl)N=O)C(C)C)[C@@H](O)[C@H](O)[C@H]1O [Compound 13, 3-isopropyl-3-(isobutyl α-D-glucopyranose-6-yl)-1-(2-chloroethyl)-1-nitrosourea] | 120 | 2.77 | 6/6 | > 700 | 43.3 | 375 | – | – | – |
| CC(C)CCO[C@H]1O[C@H](CN(CC(C)C)C(=O)N(CCCl)N=O)[C@@H](O)[C@H](O)[C@H]1O [Compound 25, 3-isobutyl-3-(isopentyl α-D-glucopyranose-6-yl)-1-(2-chloroethyl)-1-nitrosourea] | 150 | 4.2 | 6/6 | > 700 | 35.7 | 450 | – | – | – |
| CC(C)CO[C@H]1O[C@H](CO)[C@H](N(CC(C)C)C(=O)N(CCCl)N=O)[C@H](O)[C@H]1O [Compound 129, 3-isobutyl-3-(isobutyl α-D-garactopyranose-4-yl)-1-(2-chloroethyl)-1-nitrosourea] | 200 | 5.21 | 3/6 | > 350 | 38.4 | 600 | – | – | – |
